In publication PMC3741113, “De-Novo Design of Antimicrobial Peptides for Plant Protection” (PLoS ONE, 2013):
Where “and” joins values, the source holds several entries; their conditions need not be identical. Equal entries are not always repeated. Where two headings read alike, the source gives them in different places. Ends that are not written are not given here.

What was measured:
[1] = test system: Pectobacterium carotovorum ssp. carotovorum; settings: LB-medium, 27°C
Alternaria alternata = settings: 2% malt extract medium, 1.5–2×10^3 spores/ml, room temperature, 3d, OD590 nm; lowest concentration with no visible growth; at least two independent replicates
Pseudomonas corrugata = settings: LB-medium, 27°C
human erythrocytes [2] = settings: cited from earlier work
[3] = test system: Pseudomonas syringae pv. tomato; settings: LB-medium, 27°C
[4] = test system: Clavibacter michiganensis ssp. michiganensis; settings: LB-medium, 27°C
Fusarium solani = settings: 2% malt extract medium, room temperature, 3d; concentration range 1 to 64 µg/ml
Botrytis cinerea = settings: 2% malt extract medium, 1.5–2×10^3 spores/ml, room temperature, 3d, visual screening; lowest concentration with no visible growth; at least two independent replicates
tested plant pathogens = assay: Microdilution assay, activity summarised over several tested plant pathogens; assay type: cell-based; settings: for active concentrations (MIC): statement over some / the majority of the tested plant pathogens or bacteria
Experimental: In-vitro inhibition assays were performed in sterile flat-bottom 96-well polypropylene-plates (Greiner bio-one, Frickenhausen, Germany). 10 µl (antibacterial assay) or 20 µl (antifungal assay) of each concentration were loaded per well. Fresh bacterial colonies were transferred into LB-medium, grown to an OD600 nm of 0.08–0.1 and diluted 1∶100 with medium. 90 µl of this suspension containing about 10^5 CFU/ml of bacteria were added to each well resulting in final peptide concentrations from 0 to 100 µg/ml. After incubation at 27°C for 1–2d bacterial growth was analyzed by measuring the OD590 nm using a Tecan Genios microplate reader (Crailsheim, Germany).
Spores of plant pathogenic fungi were collected by washing sporulating cultures with water. Spore concentration was determined by haematocytometer and adjusted to 1.5–2×10^3 spores/ml in 2% malt extract medium. 80 µl of fungal spores were added per well resulting in final peptide concentrations from 0 to 100 µg/ml. After incubation at room temperature for 3d on a rotary shaker (300 rpm), fungal growth was determined by measuring the OD590 nm (Alternaria sp.) or by visual screening of the plates (Botrytis sp., Cladosporium sp.). The lowest peptide concentration, where no visible microbial growth could be detected, was determined for each organism-peptide combination and referred to as the minimal inhibitory concentration (MIC). At least two independent replicates were performed.

Xanthomonas vesicatoria = settings: LB-medium, 27°C
[5] = test system: Pseudomonas syringae pv. syringae; settings: LB-medium, 27°C
Cladosporium herbarum = settings: 2% malt extract medium, 1.5–2×10^3 spores/ml, room temperature, 3d, visual screening; lowest concentration with no visible growth; at least two independent replicates
[6] = test system: Arabidopsis mesophyll protoplasts; assay: Phytotoxicity on plant protoplasts; assay type: cell-based; settings: 1 h incubation, light microscope; for Phytotoxicity: peptide concentration where protoplasts show first signs of cytoplasmic degradation: 0, 10, 100, 200 µg/ml
Experimental: Phytotoxicity was measured on Arabidopsis mesophyll protoplasts prepared from leaves as described in [80]. 80 µl protoplast suspension containing about 5000 protoplasts were incubated with 20 µl peptide solution. Final peptide concentrations were 0, 10, 100 and 200 µg/ml. The phytotoxic effect of antimicrobial peptides was observed after 1 h with a light microscope. Hints to cell death are loss of spherical shape, chloroplast release and/or agglomeration of protoplasts.

[7] = test system: P. syringae pv. tomato DC3000; settings: peptide concentrations up to 100 µg/ml, sprayed; cfu 30 min after treatment
P. syringae = settings: Table S5; 10 µg/ ml peptide; organism P. syringae pv syrimgae [sic]
human erythrocytes [8] = assay: Hemolytic activity (hemoglobin release); assay type: cell-based
Experimental: The hemolytic activity of the peptides was evaluated by determining hemoglobin release of suspensions of fresh human erythrocytes at 405 nm. Human red blood cells (Deutscher Blutspendedienst, München, Germany) were centrifuged and washed three times with Tris-buffer (10 mM Tris, 150 mM NaCl, pH 7.4). 80 µl of cells (1.5×10^9 cells/ml) were added to 20 µl of the peptide solution in 96-well plates and incubated for 45 min at 37°C. Final peptide concentrations were 0, 20, 50, 100 and 200 µg/ml. After centrifugation (1,500 g, 5 min, 20°C) 30 µl aliquots of the supernatant were transferred to 96-well plates containing 100 µl of water and released hemoglobin was determined using a microplate reader (OD405 nm). 100% hemolysis was determined with 2% SDS.

[9] = about 10^5 CFU/ml, 1–2d, OD590 nm, at least two independent replicates

Molecule	MIC [1, 9]	MIC (Alternaria alternata)	MIC (Pseudomonas corrugata; [9])	MIC [3, 9]	MIC [4, 9]	MIC (Botrytis cinerea)	MIC (Xanthomonas vesicatoria; [9])	MIC [5, 9]	MIC (Cladosporium herbarum)	other results
GIGKFLHSAKKFGKAFVGEIMNS [Magainin II, reference compound]	> 64 µg/mL	> 64 µg/mL	32 µg/mL	32 µg/mL	32 µg/mL	64 µg/mL	8 µg/mL	> 64 µg/mL	64 µg/mL	Hemolytic activity (human erythrocytes [2]; Table S5, ref Zasloff, 1987): 5 µg/mL; MIC (Fusarium solani): 2 µg/mL; active concentrations (MIC) (tested plant pathogens): 1 to 8 µg/mL
RKKRLKLLKRLL-NH2 [SP1-1]	–	–	–	–	–	–	–	–	–	MIC ([1]; Table 4, incubation period 1d): >10 µg/mL; phytotoxicity to plant protoplasts (in words) [6]: very low phytotoxicity; Phytotoxicity: peptide concentration where protoplasts show first signs of cytoplasmic degradation [6]: 200 µg/mL; MIC (Pseudomonas corrugata; Table 4, incubation period 2d): <0.1 µg/mL; MIC ([4]; Table 4, incubation period 2d): 2.5 µg/mL; MIC (Xanthomonas vesicatoria; Table 4, incubation period 2d): 0.1 µg/mL; growth inhibition on tomato leaves [7]: 90%; Growth inhibition of bacteria/fungi on leaf surface (P. syringae): 40%; MIC ([5]; Table 4, incubation period 1d): 0.1 µg/mL
KRKLTLVFGVMAGVIGTKKR-NH2 [SP14]	>40 µg/mL	>100 µg/mL	>40 µg/mL	40 µg/mL	20 µg/mL	>100 µg/mL	>40 µg/mL	>40 µg/mL	100 µg/mL	–
LRFLKKALKKLF-NH2 [SP10-2]	–	–	–	–	–	–	–	–	–	MIC ([1]; Table 4, incubation period 1d): 1.0 µg/mL; phytotoxicity to plant protoplasts (in words) [6]: very low phytotoxicity; Phytotoxicity: peptide concentration where protoplasts show first signs of cytoplasmic degradation [6]: 200 µg/mL; MIC (Pseudomonas corrugata; Table 4, incubation period 2d): 0.5 µg/mL; MIC ([3]; Table 4, incubation period 1d): 0.5 µg/mL; MIC ([4]; Table 4, incubation period 2d): 0.25 µg/mL; MIC (Xanthomonas vesicatoria; Table 4, incubation period 2d): 0.25 µg/mL; Hemolytic activity: peptide concentration leading to 25% hemoglobin release from human blood cells (human erythrocytes [8]): > 200 µg/mL; growth inhibition on tomato leaves [7]: 90%; Growth inhibition of bacteria/fungi on leaf surface (P. syringae): 50%; MIC ([5]; Table 4, incubation period 1d): 0.1 µg/mL
RKKRLKLLKRLV-NH2 [SP1]	–	>100 µg/mL	–	–	–	>100 µg/mL	–	–	10 µg/mL	active concentrations (MIC) (tested plant pathogens): 1 to 5 µg/mL and 1 to 2 µg/mL
LRIIKKILKKLI-NH2 [SP10-5]	–	–	–	–	–	–	–	–	–	MIC ([1]; Table 4, incubation period 1d): 2.5 µg/mL; phytotoxicity to plant protoplasts (in words) [6]: very low phytotoxicity; Phytotoxicity: peptide concentration where protoplasts show first signs of cytoplasmic degradation [6]: 200 µg/mL; MIC (Pseudomonas corrugata; Table 4, incubation period 2d): 0.5 µg/mL; MIC ([3]; Table 4, incubation period 1d): 0.25 µg/mL; MIC ([4]; Table 4, incubation period 2d): 0.5 µg/mL; MIC (Xanthomonas vesicatoria; Table 4, incubation period 2d): 0.25 µg/mL; growth inhibition on tomato leaves [7]: 90%; Growth inhibition of bacteria/fungi on leaf surface (P. syringae): 70%; MIC ([5]; Table 4, incubation period 1d): 0.5 µg/mL
CC(C)C[C@H](NC(=O)[C@H](CCCNC(=N)N)NC(=O)CNC(=O)CNC(=O)[C@@H](N)CCCNC(=N)N)C(=O)N[C@H]1CSSC[C@@H](C(=O)N[C@H](C(=O)NCC(=O)N[C@@H](CCCNC(=N)N)C(N)=O)C(C)C)NC(=O)[C@H](C(C)C)NC(=O)[C@@H]2CSSC[C@H](NC(=O)[C@H](Cc3ccc(O)cc3)NC1=O)C(=O)N[C@@H](CCCNC(=N)N)C(=O)N[C@@H](CCCNC(=N)N)C(=O)N[C@@H](CCCNC(=N)N)C(=O)N[C@@H](Cc1ccccc1)C(=O)N2 [Protegrin I, reference compound]	–	–	–	–	–	–	–	–	–	Hemolytic activity: peptide concentration leading to 25% hemoglobin release: 50 µg/mL; Hemolytic activity (human erythrocytes [2]): < 80 µg/mL; Activity range: peptide concentrations necessary to inhibit growth of the listed bacteria strains (tested plant pathogens; Table S5, strains listed under strain specificity): 1 to 8 µg/mL; hemoglobin release (human erythrocytes [8]; 50 µg/ml peptide, human red blood cells): 25%
RKRAARLLKRLV-NH2 [SP2]	>40 µg/mL	>100 µg/mL	5 µg/mL	2 µg/mL	2 µg/mL	>100 µg/mL	2 µg/mL	2 µg/mL	20 µg/mL	active concentrations (MIC) (tested plant pathogens): 1 to 5 µg/mL and 1 to 2 µg/mL
LKALRKALKHLA-NH2 [SP12]	>40 µg/mL	>100 µg/mL	>40 µg/mL	2.5 µg/mL	>40 µg/mL	>100 µg/mL	20 µg/mL	10 µg/mL	20 µg/mL	Hemolytic activity: peptide concentration leading to 25% hemoglobin release from human blood cells (human erythrocytes [8]; 45 min, 37°C, Tris-buffer pH 7.4, 0, 20, 50, 100, 200 µg/ml, OD405 nm, 100% = 2% SDS, >200 = slight hemolytic activity at 200 µg/ml below threshold): >200 µg/mL
KRKLIFLAAFLAALALFKKR-NH2 [SP15]	>40 µg/mL	>100 µg/mL	>40 µg/mL	40 µg/mL	2.5 µg/mL	>100 µg/mL	20 µg/mL	>40 µg/mL	40 µg/mL	phytotoxicity to plant protoplasts (in words) [6]: highly ph ytotoxic
KKKAARALKRAL-NH2 [SP4]	>40 µg/mL	>100 µg/mL	>40 µg/mL	10 µg/mL	40 µg/mL	>100 µg/mL	>40 µg/mL	>40 µg/mL	40 µg/mL	–
LLKALKKLLKKLL-NH2 [SP9]	>40 µg/mL	>100 µg/mL	>40 µg/mL	10 µg/mL	10 µg/mL	>100 µg/mL	5 µg/mL	10 µg/mL	40 µg/mL	–
RKRFARFAKRAV-NH2 [SP3]	>40 µg/mL	>100 µg/mL	>40 µg/mL	5 µg/mL	20 µg/mL	>100 µg/mL	>40 µg/mL	>40 µg/mL	40 µg/mL	–
LRKLKKILKKLF-NH2 [SP10-10]	–	–	–	–	–	–	–	–	–	MIC ([1]; Table 4, incubation period 1d): 2.5 µg/mL; MIC (Pseudomonas corrugata; Table 4, incubation period 2d): 0.25 µg/mL; MIC ([3]; Table 4, incubation period 1d): 0.5 µg/mL; MIC ([4]; Table 4, incubation period 2d): 0.25 µg/mL; MIC (Xanthomonas vesicatoria; Table 4, incubation period 2d): 0.1 µg/mL; Hemolytic activity: peptide concentration leading to 25% hemoglobin release from human blood cells (human erythrocytes [8]; Table 4, 45 min, 37°C, highest concentration tested 200 µg/ml): – (no value indicates none detectable hemolytic activity up to the highest concentration tested); MIC ([5]; Table 4, incubation period 1d): 0.25 µg/mL
